Results from article PMC2826142 (Journal of medicinal chemistry, 2010).
pKi: −log10 of the molar value. “Also recorded” adds a separate entry of the source.

Tests used:
[1] = target: T1, human adenosine A2A receptor (Homo sapiens, UniProt P29274); assay: Radioligand displacement at A2AAR-HEK membranes; assay type: binding; details: for Max Displacement at A2AAR-HEK membranes: 10 µM of test compound; for A2A / A1 selectivity: mammalian membranes, A2AAR over A1AR
[2] = target: T2, human adenosine A1 receptor (Homo sapiens, UniProt P30542); assay: Radioligand; assay type: binding; details: for inhibition at 10 µM: read-out: Max Displacement A1AR-CHO membranes
T2 sequence (P30542 1-326): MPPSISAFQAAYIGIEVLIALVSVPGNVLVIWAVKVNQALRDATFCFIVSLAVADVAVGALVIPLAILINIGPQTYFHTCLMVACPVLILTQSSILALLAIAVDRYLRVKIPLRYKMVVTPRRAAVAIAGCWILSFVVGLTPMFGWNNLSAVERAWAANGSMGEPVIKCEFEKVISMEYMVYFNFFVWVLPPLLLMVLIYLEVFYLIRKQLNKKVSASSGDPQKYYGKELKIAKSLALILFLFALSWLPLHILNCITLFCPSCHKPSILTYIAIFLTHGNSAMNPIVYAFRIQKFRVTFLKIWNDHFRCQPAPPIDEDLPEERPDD

[3] = test system: forskolin stimulated cAMP generation; assay: Forskolin stimulated cAMP generation; assay type: cell-based; details: data not shown
[4] = target: T1, human adenosine A2A receptor; assay: Functional cAMP accumulation assay; assay type: cell-based; details: 10 µM compound, 10 nM or 10 µM 3a
human A2AAR receptor = human A2AAR receptor (Homo sapiens, UniProt P29274); assay: Competition binding with tritiated compound 1; details: for LE (experimental ligand efficiency): ligand binding energy per heavy atom, from Sf9 Ki
human A2AAR receptor, sequence (P29274 whole entry): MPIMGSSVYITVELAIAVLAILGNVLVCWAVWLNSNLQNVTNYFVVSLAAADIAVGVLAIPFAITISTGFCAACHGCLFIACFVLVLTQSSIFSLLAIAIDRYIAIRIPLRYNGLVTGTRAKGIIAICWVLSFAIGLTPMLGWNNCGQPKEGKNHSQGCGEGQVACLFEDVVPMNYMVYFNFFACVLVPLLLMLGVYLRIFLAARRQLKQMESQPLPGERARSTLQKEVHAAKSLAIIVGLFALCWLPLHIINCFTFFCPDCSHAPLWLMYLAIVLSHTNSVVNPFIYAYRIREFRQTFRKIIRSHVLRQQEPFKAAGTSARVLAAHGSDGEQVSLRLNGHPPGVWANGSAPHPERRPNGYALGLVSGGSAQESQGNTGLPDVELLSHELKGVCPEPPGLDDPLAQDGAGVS

[5] = Visible sedimentation in binding assay; details: binding assay buffer

T1 sequence (P29274 whole entry): as above

pKi [1]	Max Displacement at A2AAR-HEK membranes [1] [%]	A2A / A1 selectivity [1] [fold]	pKi [2]	inhibition at 10 µM [2] [%]	A2AAR affinity (in words) (human A2AAR receptor; Sf9 membranes)	Structure (SMILES)	further results
7.22	48	1.42	7.05	32	–	Nc1c(C(=O)Nc2ccccc2F)sc2nc3c(cc12)C(=O)CCC3 [compound 6]	effect on forskolin stimulated cAMP generation [3]: inhibited; A2AAR antagonist functional activity (in words) [4]: the effect does not depend on agonist concentration
–	–	–	–	–	–	CN1CCc2sc3nc(C(=O)Nc4ccc(F)cc4)c(N)cc3c2C1 [compound 7]	pKi (human A2AAR receptor): 5.72
5.94	53	0.05	7.22	100	–	N#Cc1c(N)nc2c(C(N)=O)c(Nc3ccccc3)sc2c1-c1ccccc1 [compound 8]	A2AAR antagonist functional activity (in words) [4]: No A2AAR specific activity; also recorded: does not have any functional activity
6.31	41	2.94	5.84	41	–	COc1ccc(Cl)cc1Nc1nc(N)nc(-c2oc3ccccc3c2C)n1 [compound 9]	concentration with visible sedimentation of the compound [5]: above 10 µM; pKi (human A2AAR receptor): 7.52; displacement of the hot ligand (human A2AAR receptor; Sf9 membranes, at 2 µM): up to 80%; A2AAR antagonist functional activity (in words) [4]: one of the highest among the tested ligands
< 5.00	–	–	5.95	28	–	CN1CCc2nc3sc(C(=O)Nc4ccc(Cl)cc4)c(N)c3cc2C1 [compound 10]	binding to the HEK293 expressed A2AAR protein (in words) ([1]; HEK293 membranes): did not show any substantial binding
7.22	54	2.24	6.85	25	–	Nc1c(C(=O)Nc2nccs2)sc2nc3c(cc12)C(=O)CCC3 [compound 14]	–
6.25	73	0.87	6.32	27	–	N#Cc1c(N)nc2c(oc3ccccc32)c1-c1ccccc1 [compound 15]	–
–	–	–	–	–	modest affinity	Nc1c(C(=O)c2ccccc2)oc2ccc(Br)cc12 [compound 16]	LE (experimental ligand efficiency) (human A2AAR receptor): 0.38 kcal/mol per heavy atom
6.14	73	>10.	< 5.00	–	–	NC1=C(Nc2cccc(C(F)(F)F)c2)C(=O)c2ccccc2C1=O [compound 17]	LE (experimental ligand efficiency) (human A2AAR receptor): ~ 0.4 kcal/mol per heavy atom; A2AAR antagonist functional activity (in words) [4]: significant activity
–	–	–	–	–	low-µM affinity	Nc1c(Oc2ccccc2)ccc2c1C(=O)c1ccccc1C2=O [compound 20]	–
–	57	0.13	6.41	86	modest	Cc1ccc(N2C(=O)c3cccc(N)c3C2=O)cc1 [compound 21]	–
–	–	–	–	–	low-µM affinity	Nc1cccc2c1C(=O)c1ccccc1C2=O [compound 28]	–
6.96	100	2.51	6.55	100	sub-µM affinity	Nc1ccc(N)c2c1C(=O)c1ccccc1C2=O [compound 29]	–
6.70	100	0.75	6.82	100	sub-µM affinity	Cn1c(=O)cc2c3c(c(N)ccc31)C(=O)c1ccccc1-2 [compound 35]	–
–	–	–	–	–	low-µM affinity	Nc1c(Sc2ccccc2)cc(Sc2ccccc2)c2c1C(=O)c1ccccc1C2=O [compound 38]	–
–	–	–	–	–	modest affinity	CC(=O)Oc1cccc(-c2nc(C(N)=O)c(N)o2)c1 [compound 46]	LE (experimental ligand efficiency) (human A2AAR receptor): 0.32 kcal/mol per heavy atom
6.03	–	–	6.72	100	sub-µM affinity	Nc1ccc(Cl)c2c1C(=O)c1ccccc1C2=O [compound 49]	–
6.82	50	–	5.76	27	–	Cc1cccc(NC2=C(N)C(=O)c3ccccc3C2=O)c1 [compound 50]	LE (experimental ligand efficiency) (human A2AAR receptor): ~ 0.4 kcal/mol per heavy atom; A2AAR antagonist functional activity (in words) [4]: significant activity
–	–	–	–	–	–	Nc1ccc(-c2nc3c(N)cccc3[nH]2)cc1 [compound 57]	LE (experimental ligand efficiency) (human A2AAR receptor): 0.32 kcal/mol per heavy atom

Structure (SMILES)	pKi [1]	Max Displacement at A2AAR-HEK membranes [1] [%]	A2A / A1 selectivity [1] [fold]	pKi [2]	inhibition at 10 µM [2] [%]	A2AAR affinity (in words) (human A2AAR receptor; Sf9 membranes)	further results
COc1ccc(N)c2c1C(=O)c1ccccc1C2=O [compound 26]	7.00	100	2.74	6.59	100	sub-µM affinity	–
